Laboratory results: patent US12064437B2, “Methods for treating systemic lupus erythematosus and the use of biomarkers as a predictor of clinical sensitivity to therapies” (CELGENE CORPORATION, priority 2020, dated 2024)

Test system: subjects with active autoantibody-positive SLE
Test: Phase 2b study in SLE: SLE Responder Index 4 (SRI-4) response at week 24
Type: in vivo, human
Conditions: for Percentage of Subjects Who Achieve SRI(4) at Week 24, n/m (%) / SRI(4) at Week 24, Stratified Difference (%) (95% CI), Iberdomide - Placebo: ITT; for SRI-4 treatment effect versus placebo: week 24
Protocol: The pharmacokinetics, pharmacodynamics (PD), efficacy, and safety of oral iberdomide ((S)-3-[4-({4-[(morpholin-4-yl)methyl]phenyl}methoxy)-1-oxo-1,3-dihydro-2H-isoindol-2-yl]piperidine-2,6-dione-hydrogen chloride (1/1)) were evaluated in a phase 2b study in subjects with active autoantibody-positive SLE.
Adult SLE patients (N=288) with a ≥6-month history of SLE and SLE Disease Activity Index (SLEDAI 2K) ≥6 were randomized to placebo (n=83) or iberdomide 0.15 mg QD (n=42), 0.3 mg QD (n=82), or 0.45 mg QD (n=81). Clinical response was determined by the SLE Responder Index 4 (SRI-4) at week 24 for all patients and within pre-specified biomarker-enriched subsets based on expression of Ikaros, Aiolos, the Type 1 IFN signature (IFI27, IFI44, IFI44L, RSAD2), and other gene modules measured from fingerstick blood collected at baseline (Modular Immune Profile Test, DxTerity Diagnostics, Inc.). The primary objective of the study was to evaluate the clinical efficacy of 3 doses of iberdomide (0.45 mg once per day [QD], 0.30 mg QD, or 0.15 mg QD) compared to placebo, for the treatment of active SLE using the SLE Responder Index at Week 24.

[1] = B cell: High at baseline, 0.15 mg QD
[2] = B cell: High at baseline, 0.30 mg QD
[3] = B cell: High at baseline, 0.45 mg QD
[4] = IKZF1: High at baseline, 0.15 mg QD
[5] = IKZF1: High at baseline, 0.30 mg QD
[6] = IKZF1: High at baseline, 0.45 mg QD
[7] = IKZF1 Status of SNP rs4917014: 1 or 2 Copies, 0.15 mg QD
[8] = IKZF1 Status of SNP rs4917014: 1 or 2 Copies, 0.30 mg QD
[9] = IKZF1 Status of SNP rs4917014: 1 or 2 Copies, 0.45 mg QD
[10] = IKZF3 (Aiolos): High at baseline, 0.45 mg QD
[11] = Ikaros IFN: High at baseline, 0.15 mg QD
[12] = Ikaros IFN: High at baseline, 0.30 mg QD
[13] = Ikaros IFN: High at baseline, 0.45 mg QD

O=C1CC[C@H](N2Cc3c(OCc4ccc(CN5CCOCC5)cc4)cccc3C2=O)C(=O)N1 [iberdomide, (S)-3-[4-({4-[(morpholin-4-yl)methyl]phenyl}methoxy)-1-oxo-1,3-dihydro-2H-isoindol-2-yl]piperidine-2,6-dione-hydrogen chloride (1/1)]
SRI(4) stratified difference from placebo (0 copies of IKZF1 rs4917014 protective minor allele (G), 0.45 mg QD): 6.1% | estimated SRI-4 response rate (Aiolos (IKZF3) gene expression cutoff −0.49, 0.45 mg dose, prevalence vs. cutoff analysis): 60-65% | Percentage of Subjects Who Achieve SRI(4) at Week 24, n/m (%) [1]: 8/24 (33.3) % | SRI(4) at Week 24, Stratified Difference (%) (95% CI), Iberdomide - Placebo [1]: −0.7 (−22.56, 22.94) % | Percentage of Subjects Who Achieve SRI(4) at Week 24, n/m (%) [2]: 19/49 (38.8) % | SRI(4) at Week 24, Stratified Difference (%) (95% CI), Iberdomide - Placebo [2]: 4.5 (−15.06, 23.69) % | Percentage of Subjects Who Achieve SRI(4) at Week 24, n/m (%) [3]: 30/54 (55.6) % | SRI(4) at Week 24, Stratified Difference (%) (95% CI), Iberdomide - Placebo [3]: 20.4 (0.74, 38.01) % | SRI-4 treatment effect versus placebo (IFN High Aiolos High double-positive population, high dose 0.45 mg): 29.8% | SRI-4 treatment effect versus placebo (IFN High Aiolos High double-positive population, low dose 0.15 mg): 29.8% | SRI-4 treatment effect versus placebo (IFN High Aiolos Low population, low dose 0.15 mg): 26.8% | SRI-4 treatment effect versus placebo (IFN Low Aiolos High subset, high dose 0.45 mg): 35.0% | Percentage of Subjects Who Achieve SRI(4) at Week 24, n/m (%) [4]: 12/28 (42.9) % | SRI(4) at Week 24, Stratified Difference (%) (95% CI), Iberdomide - Placebo [4]: 7.0 (−14.36, 28.68) % | Percentage of Subjects Who Achieve SRI(4) at Week 24, n/m (%) [5]: 21/53 (39.6) % | SRI(4) at Week 24, Stratified Difference (%) (95% CI), Iberdomide - Placebo [5]: 2.4 (−15.87, 20.58) % | Percentage of Subjects Who Achieve SRI(4) at Week 24, n/m (%) [6]: 35/64 (54.7) % | SRI(4) at Week 24, Stratified Difference (%) (95% CI), Iberdomide - Placebo [6]: 16.1 (−1.76, 32.65) % | Percentage of Subjects Who Achieve SRI(4) at Week 24, n/m (%) [7]: 11/21 (52.4) % | SRI(4) at Week 24, Stratified Difference (%) (95% CI), Iberdomide - Placebo [7]: 23.0 (−2.36, 46.07) % | Percentage of Subjects Who Achieve SRI(4) at Week 24, n/m (%) [8]: 18/46 (39.1) % | SRI(4) at Week 24, Stratified Difference (%) (95% CI), Iberdomide - Placebo [8]: 7.9 (−12.18, 26.84) % | Percentage of Subjects Who Achieve SRI(4) at Week 24, n/m (%) [9]: 20/36 (55.6) % | SRI(4) at Week 24, Stratified Difference (%) (95% CI), Iberdomide - Placebo [9]: 21.3% | Percentage of Subjects Who Achieve SRI(4) at Week 24, n/m (%) (IKZF3 (Aiolos): High at baseline, 0.15 mg QD): 5/14 (35.7) % | SRI(4) at Week 24, Stratified Difference (%) (95% CI), Iberdomide - Placebo (IKZF3 (Aiolos): High at baseline, 0.15 mg QD, listed as Iberdomide): 2.2 (−24.82, 31.94) % | Percentage of Subjects Who Achieve SRI(4) at Week 24, n/m (%) (IKZF3 (Aiolos): High at baseline, 0.30 mg QD): 9/32 (28.1) % | SRI(4) at Week 24, Stratified Difference (%) (95% CI), Iberdomide - Placebo (IKZF3 (Aiolos): High at baseline, 0.30 mg QD, listed as Iberdomide): −7.1 (−31.13, 16.94) % | Percentage of Subjects Who Achieve SRI(4) at Week 24, n/m (%) [10]: 23/36 (63.9) % | SRI(4) at Week 24, Stratified Difference (%) (95% CI), Iberdomide - Placebo [10]: 32.9% | SRI(4) at Week 24, Stratified Difference (%) (95% CI), Iberdomide - Placebo (IKZF3 (Aiolos): High at baseline, 0.45 mg QD, listed as Iberdomide): 32.9 (7.74, 52.90) % | Percentage of Subjects Who Achieve SRI(4) at Week 24, n/m (%) [11]: 16/30 (53.3) % | SRI(4) at Week 24, Stratified Difference (%) (95% CI), Iberdomide - Placebo [11]: 18.6 (−3.69, 39.05) % | Percentage of Subjects Who Achieve SRI(4) at Week 24, n/m (%) [12]: 21/49 (42.9) % | SRI(4) at Week 24, Stratified Difference (%) (95% CI), Iberdomide - Placebo [12]: 8.9 (−10.47, 27.36) % | Percentage of Subjects Who Achieve SRI(4) at Week 24, n/m (%) [13]: 36/62 (58.1) % | SRI(4) at Week 24, Stratified Difference (%) (95% CI), Iberdomide - Placebo [13]: 24.3% | SRI(4) at Week 24, Stratified Difference (%) (95% CI), Iberdomide - Placebo (Ikaros IFN: High at baseline, 0.45 mg QD, listed as Iberdomide): 24.3 (5.45, 40.76) % | SRI(4) at Week 24, Stratified Difference (%) (95% CI), Iberdomide - Placebo (Overall Subjects, 0.15 mg QD): 11.4% | Percentage of Subjects Who Achieve SRI(4) at Week 24, n/m (%) (Overall Subjects, 0.15 mg QD, nonresponder imputation): 20/42 (47.6) % | SRI(4) at Week 24, Stratified Difference (%) (95% CI), Iberdomide - Placebo (Overall Subjects, 0.15 mg QD, listed as Iberdomide): 11.4 (−6.57, 29.00) % | SRI(4) at Week 24, Stratified Difference (%) (95% CI), Iberdomide - Placebo (Overall Subjects, 0.30 mg QD): 5.0% | Percentage of Subjects Who Achieve SRI(4) at Week 24, n/m (%) (Overall Subjects, 0.30 mg QD, nonresponder imputation): 33/82 (40.2) % | SRI(4) at Week 24, Stratified Difference (%) (95% CI), Iberdomide - Placebo (Overall Subjects, 0.30 mg QD, listed as Iberdomide): 5.0 (−9.77, 19.48) % | SRI(4) at Week 24, Stratified Difference (%) (95% CI), Iberdomide - Placebo (Overall Subjects, 0.45 mg QD): 19.4% | Percentage of Subjects Who Achieve SRI(4) at Week 24, n/m (%) (Overall Subjects, 0.45 mg QD, nonresponder imputation): 54.3%
